This is an account of results in article PMC7824033, “Flavones, Flavonols, and Glycosylated Derivatives—Impact on Candida albicans Growth and Virulence, Expression of CDR1 and ERG11, Cytotoxicity” (Pharmaceuticals, 2020).

Data set [1] relates to C. albicans. To be noted: cited from earlier work.
Data set [2] concerns S. aureus efflux. Set-up: method as in PMID 25961825. The following applies: S. aureus; cited from earlier work.
The test system of data set [3] is Candida albicans. In words: Microdilution assay, MIC (strain not named). The following applies: C. albicans, this study, strain not given, read-out: minimum inhibitory concentration (MIC). The format is cell-based. The text has this:
(§1) C. albicans was isolated from oral cavities of patients at ENT Clinic, Clinical Hospital Centre Zvezdara, Belgrade, Serbia after obtaining informed written consent and identified by using CHROMagar plates (Biomerieux, Craponne, France). Strains were maintained on Sabouraud Dextrose Agar (Merck, Darmstadt, Germany) and are deposited at the Mycological Laboratory, Department of Plant Physiology, Institute for Biological Research “Siniša Stanković”, National Institute of Republic of Serbia, University of Belgrade. The collection of samples was approved by the Ethical Committee (Office for Human Research Protection, Zvezdara University Medical Center, Belgrade, Serbia, document issued 26 October 2016).
(§2) Microdilution assay with some modification was used for determination of minimum inhibitory (MIC) and minimum fungicidal concentrations (MFC). Yeast cultures were adjusted to 1.0 × 10^5 CFU/per well with sterile PBS (Phosphate buffered saline, pH 7.4). The 96-well microtiter plates with serially diluted flavonoids (concentration range 0.3–75 µg/mL) in liquid broth were incubated at 37 °C for 24 h. After incubation, MIC and MFC were determined. The lowest concentrations that were not inducing microscopically observed growth were considered as MIC. For microscopic determination of growth, we used inverted microscope Nikon Eclipse TS2 (Amsterdam, Netherland) and examined the fungal growth in the wells of 96-well microtiter plates compared to the control (untreated yeast cells). MFC values were determined as concentrations without visible growth after serial sub-cultivation of 10 µL of samples at 37 °C for 24 h. Ketoconazole and amphotericin B (SigmaAldrich, Darmstadt, Germany) were used as an antifungal control. The tested flavonoids were obtained from Extrasynthese, Rhone, France.

Data set [4] has as its system HUVE (human umbilical vein endothelial) cells. To be noted: read-out: LC50; cited from earlier work.
A short description of data set [5]: in vitro. To be noted: pig. The procedure:
(§3) Preparation of PLP2 cell line was performed with freshly harvested porcine liver supplied from a local slaughter house. Tissues from the liver were washed in Hank’s balanced salt solution comprising 100 U/mL penicillin and 100 μg/mL streptomycin and split into 1 × 1 mm^3 explants. Some of the prepared explants were set in 25 cm^2 tissue flasks in Dulbecco’s modified Eagle’s medium (DMEM) with 10% fetal bovine serum (FBS), 2 mM nonessential amino acids, 100 U/mL penicillin, and […] streptomycin, and incubation was conducted at 37 °C with 5% CO2 in a humidified atmosphere. The fresh medium was added every 2 days. Cultivation of the cells was further conducted with direct observation by the phase contrast microscope every 2–3 days. Before confluence was achieved, cells were subcultured and seeded in 96-well plates at a density of 1.0 × 10^4 cells per well and cultivated in DMEM supplemented with 10% FBS, 100 U/mL penicillin, and 100 μg/mL streptomycin. Previously described Sulforhodamine B assay was used for the determination of cytotoxicity. The obtained results were defined as GI50 values corresponding to the compound concentration that inhibits 50% of the net cell growth. Ellipticine was used as a positive control.

Data set [6] concerns porcine liver cells PLP2. In words: in vitro. The procedure: as §3
Data set [7] has as its system C. albicans 13/15. In words: Microdilution assay, MIC and MFC. The following applies: Candida albicans, C. albicans 13/15, mean ± SD of three replicates. The format is cell-based.
Source text: as §1, §2

In data set [8] the test system is C. albicans 527/14. In words: Microdilution assay, MIC and MFC. The format is cell-based. The following applies: Candida albicans, C. albicans 527/14, mean ± SD of three replicates.
Source text: as §1, §2

Data set [9] concerns C. albicans 10/15. In words: Microdilution assay, MIC and MFC. The format is cell-based. The following applies: Candida albicans, C. albicans 10/15, mean ± SD of three replicates.
Source text: as §1, §2

The subject of data set [10] is C. albicans 475/15. In words: Microdilution assay, MIC and MFC. The format is cell-based. To be noted: Candida albicans, C. albicans 475/15, mean ± SD of three replicates.
Source text: as §1, §2

Data set [11] relates to TIG-1 (human lung embryonic fibroblasts). To be noted: read-out: LC50; TIG-1 cells; cited from earlier work.
The subject of data set [12] is C. albicans biofilm. To be noted: 625–5000 µg/mL; C. albicans ATCC 90028; cited from earlier work.
In data set [13] the test system is CDR1. In words: Expression of CDR1 (qPCR). The format is cell-based, Candida albicans. To be noted: treatment with MIC. Here is the method:
Total RNA was isolated as described by Sanglard et al. with some modifications. C. albicans 475/15 was grown with agitation at 30 °C in YEPD until OD540 = 0.4. C. albicans cells were incubated with MIC of compounds in YEPD at 30 °C with agitation for 30 min. Cells were centrifuged (4600 rpm, 4 °C for 5 min (Rotanata 460 R, Hettich, Tuttlingen, Germany)) and the pellet was resuspended in 300 µL of RNA buffer (0.1 M Tris-HCl pH 7.5, 0.1M LiCl, 10mM EDTA, 0.5% SDS). The pellet was homogenized with 200 µL of DEPC treated glass beads and 300 µL of Phenol:Chloroform:Isoamyl Alcohol (Sigma-Aldrich, Darmstadt, Germany) in Precellys Evolution tissue homogenizer (Bertion instruments, Montigny-le-Bretonneux, France) at 4500 rpm for 5 s. After centrifugation (14,000 rpm, 4 °C, 1 min (Universal 32 R, Hettich, Tuttlingen, Germany)) 200 µL of supernatant was vortexed with 250 µL of Phenol:Chloroform:Isoamyl Alcohol for 10 s. Samples were centrifuged (14,000 rpm, 4 °C, 1 min) and 200 µL of supernatant was transferred to new tubes, 400 µL of ice-cold 99% ethanol was added to each tube, and they were kept on dry ice for 10 min. Samples were centrifuged (14,000 rpm, 4 °C, 2 min), pellet was washed with ethanol (70%), left to dry at room temperature, after which it was dissolved in 50 µL of DEPC treated water. Nanodrop (ND-1000, Witec AG, Sursee, Switzerland) was used for determination of concentration and purity of samples. RNA was stored at −80°C.
Amount of 10 µg RNA was incubated with 5 µL of DNAse buffer and 1 µL of DNAse at 37 °C for 30 min (DNA-free™ DNA Removal Kit, Ambion, Bleiswijk, Netherlands). After addition of DNAse inactivation reagent tubes were kept at room temperature with occasional vortexing for 5 min. Samples were centrifuged (14,000 rpm, 4°C, 2 min) and the concentration and quality of supernatant were analyzed on Nanodrop (ND-1000, Witec AG, Sursee, Switzerland).
Synthesis of cDNA was done with a Transcriptor High Fidelity cDNA synthesis kit (Roche). RNA (1 µg) was incubated with 60 µM random hexamer primers, in 11.4 µL of total sample volume, at 65 °C for 10 min. The mixture of Transcriptase reaction buffer 5×, Deoxynucleotide mix, DTT, Protector RNAse inhibitor, and Transcriptor High Fidelity Reverse Transcriptase was added to each tube according to manufacturer instructions. Synthesis of cDNA was completed by incubating the mixture at 50 °C for 30 min and 85 °C for 5 min (Peqstar thermocycler, Peqlab, Erlangen, Germany).
Wells of MicroAmp Fast 96-Well Reaction plate ((0.1 mL), Applied biosystems, Waltham, MA, USA) were incubated with 10 µL of mixture (cDNA, 2× MasterMix, primers, probe (Table 3), and water). Analysis was performed in StepOnePlus Real Time PCR system with relative standard curve method. Expression levels of CDR1 and ERG11 were normalized to expression of ACT1.

Each structure is given as a SMILES string. In brackets after ≈: the same amount, converted by molar mass. Like-named read-outs stand apart in the source and are kept apart here. Bounds are passed on as bounds.

Take `O=c1cc(-c2ccc(O)c(O)c2)oc2cc(O)cc(O)c12` [Luteolin, luteolin]: the MIC in [1] (clinical isolates and C. albicans 10231) was more than 0.083 mg/mL; in [1] (different C. albicans strains, ref 13), 3.1 mg/mL (≈ 10800 µM); in data set [1] (different C. albicans strains, ref 15), more than 1 mg/mL; in data set [3], 37.5 µg/mL (≈ 131 µM); in data set [7] (read-out: MIC) it was 37.5 ± 1 µg/mL (≈ 131 µM); in data set [8] (read-out: MIC), 37.5 ± 1 µg/mL (≈ 131 µM). Moreover, the MIC in data set [9] (read-out: MIC) and in data set [10] (read-out: MIC) was 37.5 ± 1 µg/mL (≈ 131 µM) throughout. Moreover, the “IC50, efflux inhibition” value in data set [2] is 75 µg/mL (≈ 262 µM). Besides, the CC50 is 57 µM in [4] and 107 µM in data set [11]. The GI50 in [5] is more than 400 µg/mL. Moreover, in [6], the “cytotoxic effect” value is “did not exhibit cytotoxic effect”. Besides, the MFC in data set [7] (read-out: MFC) worked out at 75 ± 2 µg/mL (≈ 262 µM); in data set [8] (read-out: MFC), 75 ± 20 µg/mL (≈ 262 µM); in data set [9] (read-out: MFC), 75 ± 2 µg/mL (≈ 262 µM); in data set [10] (read-out: MFC), 75 ± 2 µg/mL (≈ 262 µM). In data set [12], the “activity towards biofilm” value is “inefficient”. Besides, the “impact on CDR1 expression” value in data set [13] is on record as “did not exhibit any significant inhibitory potential”.
